The text below walks through data of patent publication US20210395210A1, “INHIBITION OF BACTERIAL CHAPERONIN SYSTEMS” (THE TRUSTEES OF INDIANA UNIVERSITY, priority 2018, published 2021).

Where only a bound is given, the exact number is not on record here.

In general, IC50 refers to the concentration that gives 50% inhibition.

In data set [1] the target is T1, E. coli GroEL/ES (Escherichia coli, UniProt P0A6F5).
T1 construct: made in house; host or cells: GroEL in E. coli DH5α; GroES in E. coli BL21 (DE3)
The experiment in a line: GroEL/ES-mediated dRho refolding assay. It counts as biochemical. The conditions noted are these: for log(IC50) GroEL/ES-dRho Refolding: log of IC50 (μM scale), with standard deviation. The procedure:
Reagent preparation: For this assay, five primary reagent stocks were prepared: 1) GroEUES-dRho binary complex stock; 2) ATP initiation stock; 3) thiocyanate enzymatic assay stock; 4) formaldehyde quench stock; 5) ferric nitrate reporter stock. Denatured rhodanese (dRho) was prepared by 3-fold dilution of rhodanese (Roche product #R1756, diluted to 10 mg/mL with H2O) with denaturant buffer (12 M Urea, 50 mM Tris-HCl, pH 7.4, and 10 mM DTT). Rhodanese was completely denatured by incubating at room temperature for 45 min. The binary complex solution was prepared by slowly adding the dRho stock to a stirring stock of concentrated GroEL in modified folding buffer (50 mM Tris-HCl, pH 7.4, 50 mM KCl, 10 mM MgCl2, 5 mM Na2S2O3, and 1 mM DTT). The solution was centrifuged at 16,000×g for 5 minutes, and the supernatant was collected and added to a solution of GroES in modified folding buffer to give final protein concentrations of 100 nM GroEL, 120 nM GroES, and 80 nM dRho. The binary complex stock was prepared immediately prior to use. For the ATP initiation stock, ATP solid was diluted into modified folding buffer to a final concentration of 2.0 mM. The thiocyanate enzymatic assay stock was prepared to contain 70 mM KH2PO4, 80 mM KCN, and 80 mM Na2S2O3 in water. The formaldehyde quench solution contained 30% formaldehyde in water. The ferric nitrate reporter stock contained 8.5% w/v Fe(NO3)3 and 11.3% v/v HNO3 in water.
Assay Protocol: First, 10 μL aliquots of the GroEL/ES-dRho complex stock were dispensed into clear, 384-well polystyrene plates. […] The chaperonin-mediated refolding cycle was initiated by addition of 10 μL of ATP stock (reagent concentrations during refolding cycle: 50 nM GroEL, 60 nM GroES, 40 nM dRho, 1 mM ATP, and compounds of 250 μM to 114 nM, 3-fold dilution series). After incubating for 45 minutes at 37° C. for the refolding cycle, 30 μL of the thiocyanate enzymatic assay stock was added and incubated for 60 min at R.T. for the refolded rhodenase enzymatic reporter reaction. The reporter reaction was quenched by adding 10 μL of the formaldehyde quench stock, and then 40 μL of the ferric nitrate reporter stock was added to quantify the amount of thiocyanate produced during the enzymatic reporter reaction, which is proportional to the amount of dRho refolded by GroEL/ES. After incubating at R.T. for 15 min, the absorbance by Fe(SCN)3 was measured at 460 nm using a Molecular Devices SpectraMax Plus384 microplate reader. A second set of baseline control plates were prepared analogously, but without GroEL/ES-dRho protein binary solution, to correct for possible interference from compound absorbance or turbidity. […] Results presented represent the averages of IC50 values obtained from at least quadriplicate (duplicate of duplicate) replicates.
After generating the compound library, we next employed a series of well-established biochemical assays to evaluate compound inhibitory effects against the GroEUES chaperonin system (See FIG. 6 and FIG. 7). We used E. coli GroEUES as the surrogate chaperonin system for refolding of the reporter enzymes malate dehydrogenase (MDH) and rhodanese (Rho). Briefly, binary complexes are formed between GroEL and denatured MDH or Rho, which are then refolded to their native states upon addition of ATP and the GroES co-chaperonin. Enzymatic activities of refolded native MDH or Rho act as coupled reporters of GroEUES refolding functions since in the presence of chaperonin inhibitors, no functional reporter enzymes are generated.

The target of data set [2] is T2, native Rho (rhodanese) (Bos taurus, UniProt P00586).
T2 construct: purchased Roche (so in the source) R1756
T2 sequence (P00586 1-297): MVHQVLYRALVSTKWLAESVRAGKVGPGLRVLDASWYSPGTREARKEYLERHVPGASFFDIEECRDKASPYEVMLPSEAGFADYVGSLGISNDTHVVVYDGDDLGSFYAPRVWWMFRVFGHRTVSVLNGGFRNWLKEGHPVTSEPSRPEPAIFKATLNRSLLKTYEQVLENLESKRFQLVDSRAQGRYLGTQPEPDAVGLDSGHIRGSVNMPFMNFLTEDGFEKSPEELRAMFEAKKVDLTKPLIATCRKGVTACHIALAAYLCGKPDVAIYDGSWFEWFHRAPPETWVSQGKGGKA
The experiment in a line: Counter-screen for inhibition of native rhodanese enzymatic activity. The settings on record: for log(IC50) Native Rho Reporter: log of IC50 (μM scale), with standard deviation; for IC50: read-out: Biochemical Assay IC50 Native Rho Reporter. It counts as biochemical. The procedure:
Reagent Preparations & Assay Protocol: Reagents were identical to those used in the GroEUES-dRho refolding assay described above; however, the assay protocol differed in the sequence of compound addition to the wells. Compounds were pin-transferred after the 60 minute incubation for the refolding cycle, but prior to the addition of the thiocyanate enzymatic assay stock. Thus, the refolding reactions were allowed to proceed for 60 min at 37° C. in the absence of test compounds, but the enzymatic activity of the refolded rhodanese reporter enzyme was monitored in the presence of test compounds (inhibitor concentration range during the enzymatic reporter reaction is 100 µM to 46 nM-3-fold dilutions). IC50 values for the rhodenase reporter enzyme were determined as described above. Results presented represent the averages of IC50 values obtained from at least quadriplicate (duplicate of duplicate) replicates.
A general note: Counterscreens check selectivity or assay interference.

Data set [3] in a line: in vitro. The settings on record: human. As to the method:
HEK 293 cells were maintained in MEM medium (Corning Cellgro, 10-009 CV) supplemented with 10% FBS (Sigma, F2242). […] Cells at 80% confluence were harvested and diluted in growth medium, then 45 μL of the THLE-3 cells (1,500 cells/well) or HEK 293 cells (1,500 cells/well) were dispensed per well, and plates were sealed with “Breathe Easy” oxygen permeable membranes (Diversified Biotech) and incubated at 37° C., 5% CO2, for 24 h.

T1 sequence (P0A6F5 2-548): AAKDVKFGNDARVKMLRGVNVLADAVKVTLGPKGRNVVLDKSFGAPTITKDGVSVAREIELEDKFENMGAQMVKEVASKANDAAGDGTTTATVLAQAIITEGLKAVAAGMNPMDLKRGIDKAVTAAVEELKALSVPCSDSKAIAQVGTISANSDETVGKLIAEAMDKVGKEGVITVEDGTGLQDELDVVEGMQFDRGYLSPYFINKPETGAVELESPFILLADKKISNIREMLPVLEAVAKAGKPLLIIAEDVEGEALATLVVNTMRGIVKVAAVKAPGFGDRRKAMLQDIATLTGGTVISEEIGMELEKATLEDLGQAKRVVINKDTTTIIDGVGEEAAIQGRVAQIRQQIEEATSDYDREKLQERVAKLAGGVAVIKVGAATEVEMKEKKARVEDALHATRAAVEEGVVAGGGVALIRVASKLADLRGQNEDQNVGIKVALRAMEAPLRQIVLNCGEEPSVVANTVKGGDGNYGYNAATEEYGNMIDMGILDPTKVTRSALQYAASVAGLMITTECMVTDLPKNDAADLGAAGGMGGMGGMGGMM

For `O=C(Nc1ccccc1)c1cc(Br)cc(Br)c1` [Compound 26, 3,5-Dibromo-N-phenylbenzamide], in data set [1], the IC50 is > 100 µM and the “log(IC50) GroEL/ES-dRho Refolding” value was >2. Besides, in data set [2], the “log(IC50) Native Rho Reporter” value is given as >2 and the IC50 was > 100 µM. Moreover, in data set [3], the CC50 at 48 h was > 100 µM.

`O=C(Nc1ccc(Sc2nc3ccccc3s2)c(Cl)c1)c1cccc(Br)c1` [Compound 18, N-(4-(Benzo[d]thiazol-2-ylthio)-3-chlorophenyl)-3-bromobenzamide]: the IC50 in data set [1] and in data set [2] was > 100 µM each time. Moreover, the CC50 at 48 h in data set [3] was > 100 µM.

On to `COc1c(Br)cccc1C(=O)Nc1ccccc1` [Compound 42, 3-Bromo-2-methoxy-N-phenylbenzamide], for which, in data set [1], the IC50 was > 100 µM and the “log(IC50) GroEL/ES-dRho Refolding” value is on record as >2. For the same molecule, in data set [2], the “log(IC50) Native Rho Reporter” value was >2 and the IC50 was > 100 µM. Also, the CC50 at 48 h in data set [3] is > 100 µM.

Turning to `COc1ccccc1C(=O)Nc1ccc(Sc2nc3ccccc3s2)cc1` [Compound 36, N-(4-(Benzo[d]thiazol-2-ylthio)phenyl)-2-methoxybenzamide], the IC50 in data set [1] and in data set [2] was > 100 µM in each case. Moreover, the CC50 at 48 h in data set [3] is > 100 µM.

Consider `O=C(Nc1cccc(Cl)c1)c1ccccc1` [Compound 25, N-(3-Chlorophenyl)benzamide], for which, in data set [1], the IC50 was > 100 µM and the “log(IC50) GroEL/ES-dRho Refolding” value is >2. Moreover, in data set [2], the “log(IC50) Native Rho Reporter” value is listed as >2 and the IC50 was > 100 µM. Moreover, in data set [3], the CC50 at 48 h was > 100 µM.

Regarding `COc1c(Br)cccc1C(=O)Nc1cccc(Cl)c1` [Compound 38], in data set [1], the IC50 is > 100 µM and the “log(IC50) GroEL/ES-dRho Refolding” value was >2. Besides, in data set [2], the “log(IC50) Native Rho Reporter” value is >2 and the IC50 is > 100 µM. Also, in data set [3], the CC50 at 48 h is > 100 µM.

Turning to `O=C(Nc1ccccc1)c1cccc(Br)c1` [Compound 27, 3-Bromo-N-phenylbenzamide], in data set [1], the IC50 is > 100 µM and the “log(IC50) GroEL/ES-dRho Refolding” value was >2. Moreover, in data set [2], the “log(IC50) Native Rho Reporter” value is >2 and the IC50 was > 100 µM. In data set [3], the CC50 at 48 h was > 100 µM.

Turning to `COc1ccc(Br)cc1C(=O)Nc1cccc(Cl)c1` [Compound 39, 5-Bromo-N-(3-chlorophenyl)-2-methoxybenzamide], in data set [1], the IC50 is > 100 µM and the “log(IC50) GroEL/ES-dRho Refolding” value is recorded as >2. Also, in data set [2], the “log(IC50) Native Rho Reporter” value is given as >2 and the IC50 is > 100 µM. In addition, in data set [3], the CC50 at 48 h is > 100 µM.

As for `COc1ccccc1C(=O)Nc1ccc(Sc2nc3ccccc3s2)c(Cl)c1` [Compound 32, N-(4-(Benzo[d]thiazol-2-ylthio)-3-chlorophenyl)-2-methoxybenzamide], the IC50 in data set [1] and in data set [2] was > 100 µM each time. In addition, the CC50 at 48 h in data set [3] is > 100 µM.

Regarding `O=C(Nc1ccc(Sc2nc3ccccc3s2)cc1)c1cc(Br)cc(Br)c1` [Compound 20, N-(4-(Benzo[d]thiazol-2-ylthio)phenyl)-3,5-dibromobenzamide], the IC50 in data set [1] and in data set [2] was > 100 µM throughout. The CC50 at 48 h in data set [3] is > 100 µM.

`O=C(Nc1ccc(Sc2nc3ccccc3s2)cc1)c1ccccc1` [Compound 22, N-(4-(Benzo[d]thiazol-2-ylthio)phenyl)benzamide]: the IC50 in data set [1] and in data set [2] was > 100 µM in each case. Further, the CC50 at 48 h in data set [3] was > 100 µM.

As for `COc1c(Br)cc(Br)cc1C(=O)Nc1ccc(Sc2nc3ccccc3s2)cc1` [Compound 33, N-(4-(Benzo[d]thiazol-2-ylthio)phenyl)-3,5-dibromo-2-methoxybenzamide], the IC50 in data set [1] and in data set [2] was > 100 µM throughout. Also, the CC50 at 48 h in data set [3] is > 100 µM.

Regarding `COc1ccccc1C(=O)Nc1ccccc1` [Compound 44, 2-Methoxy-N-phenylbenzamide], in data set [1], the IC50 is > 100 µM and the “log(IC50) GroEL/ES-dRho Refolding” value is >2. Further, in data set [2], the “log(IC50) Native Rho Reporter” value is reported as >2 and the IC50 is > 100 µM. For the same molecule, the CC50 at 48 h in data set [3] was > 100 µM.

In the case of `COc1c(Br)cc(Br)cc1C(=O)Nc1ccc(Sc2nc3ccccc3s2)c(Cl)c1` [Compound 29, N-(4-(Benzo[d]thiazol-2-ylthio)-3-chlorophenyl)-3,5-dibromo-2-methoxybenzamide], the IC50 in data set [1] and in data set [2] was > 100 µM each time. For the same molecule, the CC50 at 48 h in data set [3] is > 100 µM.

As to `O=C(Nc1ccc(Sc2nc3ccccc3s2)c(Cl)c1)c1cc(Br)cc(Br)c1` [Compound 17, N-(4-(Benzo[d]thiazol-2-ylthio)-3-chlorophenyl)-3,5-dibromobenzamide], the IC50 in data set [1] and in data set [2] was > 100 µM throughout. The CC50 at 48 h in data set [3] is > 100 µM.

Take `COc1ccccc1C(=O)Nc1cccc(Cl)c1` [Compound 40, N-(3-Chlorophenyl)-2-methoxybenzamide]: in data set [1], the IC50 was > 100 µM and the “log(IC50) GroEL/ES-dRho Refolding” value is on record as >2. For the same molecule, in data set [2], the “log(IC50) Native Rho Reporter” value is >2 and the IC50 was > 100 µM. Further, in data set [3], the CC50 at 48 h was > 100 µM.

Turning to `O=C(Nc1cccc(Cl)c1)c1cccc(Br)c1` [Compound 24, 3-Bromo-N-(3-chlorophenyl)benzamide], in data set [1], the IC50 is > 100 µM and the “log(IC50) GroEL/ES-dRho Refolding” value is on record as >2. In data set [2], the “log(IC50) Native Rho Reporter” value is listed as >2 and the IC50 is > 100 µM. Further, the CC50 at 48 h in data set [3] is 51.3 µM.

Take `COc1ccc(Br)cc1C(=O)Nc1ccc(Sc2nc3ccccc3s2)c(Cl)c1` [Compound 31, N-(4-(Benzo[d]thiazol-2-ylthio)-3-chlorophenyl)-5-bromo-2-methoxybenzamide]: the IC50 in data set [1] and in data set [2] was > 100 µM each time. Further, the CC50 at 48 h in data set [3] is > 100 µM.

`COc1c(Br)cc(Br)cc1C(=O)Nc1ccccc1` [Compound 41, 3,5-Dibromo-2-methoxy-N-phenylbenzamide]: in data set [1], the IC50 is > 100 µM and the “log(IC50) GroEL/ES-dRho Refolding” value is >2. In addition, in data set [2], the “log(IC50) Native Rho Reporter” value was >2 and the IC50 is > 100 µM. Besides, the CC50 at 48 h in data set [3] is > 100 µM.
